Source: the NIST ThermoML archive (doi:10.1021/je500512f)
± gives the expanded uncertainty stated by the source.

Assay: molar heat capacity at constant pressure
Conditions: Liquid, Twin Calvet

CC(F)F [1,1-difluoroethane]
molar heat capacity at constant pressure [J/K/mol]
Conditions	1490 kPa	2070 kPa	2540 kPa	2950 kPa	3440 kPa	4010 kPa	4600 kPa	5030 kPa
305.15 K	121 ± 6.1	121.14 ± 6.1	120.81 ± 6.1	120.28 ± 6.1	119.29 ± 6	119.55 ± 6	118.96 ± 6	118.49 ± 6
310.15 K	121.8 ± 6.1	121.53 ± 6.1	121.07 ± 6.1	120.81 ± 6.1	120.08 ± 6.1	119.75 ± 6	119.35 ± 6	119.09 ± 6
315.15 K	123.84 ± 6.3	123.25 ± 6.2	122.79 ± 6.2	122.46 ± 6.2	121.8 ± 6.1	121.2 ± 6.1	120.61 ± 6.1	120.41 ± 6.1
320.15 K	126.16 ± 6.3	125.23 ± 6.3	124.77 ± 6.3	124.24 ± 6.3	123.71 ± 6.3	122.99 ± 6.2	122.06 ± 6.1	121.8 ± 6.1
325.15 K	129 ± 6.5	127.61 ± 6.4	127.01 ± 6.4	126.42 ± 6.4	125.89 ± 6.3	124.97 ± 6.3	123.84 ± 6.3	123.45 ± 6.2
330.15 K	–	130.65 ± 6.6	129.79 ± 6.5	129.13 ± 6.5	128.47 ± 6.5	127.41 ± 6.4	126.09 ± 6.3	125.63 ± 6.3
335.15 K	–	134.21 ± 6.8	133.22 ± 6.7	132.36 ± 6.7	131.44 ± 6.6	130.18 ± 6.5	128.8 ± 6.5	128.27 ± 6.5
340.15 K	–	–	137.25 ± 6.9	136.06 ± 6.9	134.94 ± 6.8	133.49 ± 6.7	131.9 ± 6.7	131.31 ± 6.6
345.15 K	–	–	141.88 ± 7.1	140.36 ± 7.1	139.04 ± 7	137.32 ± 6.9	135.34 ± 6.8	134.61 ± 6.8
350.15 K	–	–	–	146.1 ± 7.4	144.05 ± 7.3	141.88 ± 7.1	139.43 ± 7.1	138.51 ± 7
355.15 K	–	–	–	–	150.66 ± 7.6	147.56 ± 7.5	144.45 ± 7.3	143.2 ± 7.2
360.15 K	–	–	–	–	–	155.02 ± 7.8	151.06 ± 7.6	149.14 ± 7.5

COC [dimethyl ether]
molar heat capacity at constant pressure [J/K/mol]
Conditions	1460 kPa	2030 kPa	2520 kPa	2930 kPa	3540 kPa	4060 kPa	4580 kPa	5020 kPa
305.15 K	113.19 ± 6.2	112.82 ± 6.2	112.13 ± 6.2	112.36 ± 6.2	111.99 ± 6.1	111.53 ± 6.1	111.26 ± 6.1	111.02 ± 6.1
310.15 K	113.47 ± 6.2	112.91 ± 6.2	112.31 ± 6.2	112.45 ± 6.2	111.72 ± 6.1	111.21 ± 6.1	111.44 ± 6.1	111.3 ± 6.1
315.15 K	114.8 ± 6.3	114.11 ± 6.3	113.6 ± 6.2	113.47 ± 6.2	112.78 ± 6.2	112.13 ± 6.2	112.45 ± 6.2	112.22 ± 6.2
320.15 K	116.23 ± 6.4	115.45 ± 6.4	115.03 ± 6.3	114.89 ± 6.3	114.02 ± 6.3	113.37 ± 6.2	113.56 ± 6.2	113.28 ± 6.2
325.15 K	117.84 ± 6.4	116.92 ± 6.4	116.65 ± 6.4	116.05 ± 6.4	115.31 ± 6.3	114.57 ± 6.3	114.66 ± 6.3	114.3 ± 6.3
330.15 K	–	118.86 ± 6.5	118.49 ± 6.5	117.75 ± 6.4	117.01 ± 6.4	116.05 ± 6.4	116.05 ± 6.4	115.59 ± 6.4
335.15 K	–	121.34 ± 6.7	120.84 ± 6.6	120.15 ± 6.6	119.27 ± 6.5	118.03 ± 6.5	117.98 ± 6.5	117.38 ± 6.4
340.15 K	–	–	123.92 ± 6.8	123.09 ± 6.8	122.08 ± 6.7	120.65 ± 6.6	120.52 ± 6.6	119.82 ± 6.6
345.15 K	–	–	127.75 ± 7	126.55 ± 7	125.35 ± 6.9	123.92 ± 6.8	123.65 ± 6.8	122.86 ± 6.7
350.15 K	–	–	–	130.65 ± 7.2	129.13 ± 7.1	127.75 ± 7	127.19 ± 7	126.27 ± 6.9
355.15 K	–	–	–	–	133.46 ± 7.3	131.94 ± 7.2	131.06 ± 7.2	129.91 ± 7.1
360.15 K	–	–	–	–	–	136.82 ± 7.5	135.67 ± 7.5	134.15 ± 7.4
365.15 K	–	–	–	–	–	144.01 ± 7.9	142.31 ± 7.8	140.42 ± 7.7
